Data from article PMC5004205, “Spiro[pyrrolidine-3, 3´-oxindole] as potent anti-breast cancer compounds: Their design, synthesis, biological evaluation and cellular target identification” (Scientific Reports, 2016).
Entries after “also recorded” stand apart in the source; their conditions may differ.

Legend:
COS-7 cells = experiment: MTT colorimetric cell viability assay, COS-7; assay type: cell-based
Procedure: (§1) The MTT colorimetric viability assay was performed to evaluate the anticancer effect of compounds. 30,000 cells/100 μl of media were seeded per well and allowed to stretch and adhere overnight at 37 °C. Following day media was removed and 100 μl fresh media was added to the grown cells. Adhered cells were then treated with the compounds 5a-m dissolved in DMSO in triplicates at a standard concentration of 50 μM for 48 hours. There was one positive and one negative control along with 13 compounds. The results were measured all in triplicate in 45 wells of 96 well plate at each time point. Cytotoxic effect was evaluated using ability of live cells to cleave MTT ((3-[4, 5- dimethylthiazol-2-yl]-2, 5-diphenyl tetrazolium bromide)) (Sigma-Aldrich, St Louis, MO, USA), into formazan crystals. Post 48 hours of treatment, 10 μl of MTT (5 mg/ml in PBS) was added to the cells and incubated for 4 hours in dark at 37 °C. The violet colored crystals formed were then dissolved in 100 μl DMSO solvent (Dimethyl Sulfoxide, Sigma-Aldrich, St. Louis, MO, USA). The colorimetric assay was read by a MultiMode Plate Reader (Bio-Rad) at 595 nm. Percentage of Inhibition of drug was calculated by following formula: […]

MCF10A cells = experiment: MTT cytotoxicity assay, MCF10A; assay type: cell-based
Procedure: MCF10A was obtained from American Tissue Type Culture Collection (ATCC, Bethesda, MD). All cells were grown in a humidified atmosphere at 37 °C, with 5% CO2 in air.
as §1
Cytotoxicity assay with MCF 10A
Experiment :MCF10A cytotoxicity assay 48 hours
Raw Data{Wavelength:595.0}
O.D1 O.D2 O.D3 AVG CTRL-TEST CTRL-TST/CTRL*100
(1 picture or pasted object on this page, not shown here)

MCF-7 cells [1] = experiment: DNA fragmentation (DNA-ladder) assay; assay type: cell-based; conditions: MCF-7, gel electrophoresis
Procedure: The DMSO (dimethyl sulphoxide)–SDS (sodium dodecyl sulphate)–TE (Tris-EDTA) method: 2 million MCF-7cells were taken as starting material for DNA isolation. Cells were dislodged with Trypsin-EDTA and washed with 1 X PBS. DMSO was added directly to the cell pellet (100 μl) and mixed well by pipetting. TE buffer (pH 7.4) with 2% SDS was added into the mixture with same volume, followed by pipetting. The solution was centrifuged at 3000 rpm at 4 °C and 30 μL of the supernatant was loaded on agarose gel to check the effect of drugs on DNA molecule.

MCF-7 cells [2] = experiment: Cell migration (scratch) assay; assay type: cell-based; conditions: 24 hours, compared to untreated cells
Procedure: MCF-7 cells were grown to confluence in six-well tissue culture plastic dishes to a density of ∼0.2 million cells/well. After 24 hrs of seeding, cells were treated with chemical compounds. The medium was removed and the cells were scratched by 200 μL pipette micro tip through the center of the plate. The cultures were washed to remove debris and re-cultured with DMEM containing 10% FBS for cell migration. The cells were imaged at 24 hrs and the migrated distance was measured. Migration rate was calculated by counting five to seven fields per image and the results presented as the average of three independent experiments performed over multiple days.

MCF-7 cells [3] = experiment: Annexin V/propidium iodide FACS assay; assay type: cell-based
Procedure: The assay is based on the ability of the protein annexin V to bind to phosphatidylserine (PS) exposed on the outer membrane leaflet in apoptotic cells (PS also appears on the necrotic cell surface). The annexin V assay was performed following the manufacturer’s instructions (Annexin V-FITC kit,Alexa Fluor). Briefly, the cells were washed with PBS and suspended in pre-diluted binding buffer. The cell density was adjusted to 2 million and 195 μl of cell suspension were mixed with 5 μl Annexin V-FITC and incubated for 10 min in the dark at room temperature. The cells were washed with binding buffer, re-suspended in 195 μl binding buffer, counterstained with 10 μl of the 20 μg/ml propidium iodide stock (final concentration 1 μg/ml) and the data were acquired by BD FACS diva 7.0 at 6 h, 12 h and 24 h.

MCF-7 cell lysate = experiment: Chemical proteomics target deconvolution with polymer-immobilized 5l; assay type: binding, Human; conditions: differential proteins common to three experiments, MS
Procedure: 5l was provided as a lyophilized powder. A 100 mM stock of 5l was made in DMSO. The stock solution was diluted to 215 μM in 1 mM of phosphate buffer in pH 6.0 and incubated with the matrix for 16 hrs at room temperature. After incubation, the matrix was washed five times with Phosphate buffer. The amount of molecule in the phosphate buffer wash was quantified by HPLC-UV based method and amount of molecule retained on the matrix was calculated.
Cell lysates were prepared in RIPA buffer and protein concentration was determined by Bradford method. Cell lysate was diluted with 1X TBS to a concentration of 1 mg/ml. The 5l immobilized matrix was incubated with 2 ml of cell lysate for 2 min with mild shaking. The matrix was washed with 1X TBS to remove unbound proteins and to reduce non-specific interactions. The molecule bound proteins were then recovered by acetone precipitation and was dissolved in 1X sample buffer. Proteins were separated on a 4–12% gradient gel and bands were digested by standard “in-gel” trypsin digestion methods. […]
Agilent Mass Hunter software was used for data acquisition and analysis of Total ion chromatograms. […] The peptide sequence was also analysed for variable modifications such as methionine oxidation, acetylation, cysteine sulfoxide, deamidation and pyro glutamic acid modification.

For `O=C1Nc2ccccc2C12CCNC2c1ccccc1` (stereo not drawn) [Compound 5l], the “Inhibition of proliferation of healthy COS-7 cells” value (COS-7 cells) was “did not inhibit the proliferation”, the inhibition at 50 µM (COS-7 cells; Chlorocebus aethiops, COS-7, 50 μM, MTT, triplicates, read-out: Percentage inhibition COS-7) was 15.4 ± 0.18% and the “Effect on proliferation of healthy MCF10A cells” value (MCF10A cells) was “did not inhibit the proliferation; also recorded: little or no effect”. For the same molecule, the “CTRL-TST/CTRL*100 MCF10A cytotoxicity” value (MCF10A cells; 48 hours, 595 nm) was 0.08, the “Percentage inhibition MCF10A” value (MCF10A cells; MTT, 48 hours) was 0.08% and the “DNA fragmentation pattern / mode of cell death” value (MCF-7 cells [1]) was “smearing of DNA fragments”. The “Inhibition of cell migration of MCF-7 cells” value (MCF-7 cells [2]) was “inhibit cell migration”, the “Mode of cell death by Annexin-PI FACS” value (MCF-7 cells [3]) was “necrosis was also confirmed” and the “Putative cellular binding targets” value (MCF-7 cell lysate) was “HDAC2 and Prohibitin 2 are considered top priority targets”.
